Like-named read-outs stand apart in the source and are kept apart here.
B1: Garvicin KS: three-peptide leaderless bacteriocin (GarA, GarB, GarC; SEQ ID NO:6-8), peptides synthesized (peptide, listed as Lactococcus garvieae)
chain 1: MGAIIKAGAKIVGKGVLGGGASWLGWNVGEKIWK
chain 2: MGAIIKAGAKIIGKGLLGGAAGGATYGGLKKIFG
chain 3: MGAIIKAGAKIVGKGALTGGGVWLAEKLFGGK

How the values were obtained:
Type in all cases: cell-based, Staphylococcus aureus
[1] = system: MRSA; experiment: MIC of the mixture dissolved in 5% HPC; details: for MIC: Staphylococcus aureus, MRSA, read-out: final MIC of the component in the mixture in HPC
Method: Antimicrobial activity was measured using the AAMP assay (Wiegand et al., 2008, Nat. Protoc., Vol. 3(2), p 163-175).
We also tested hydroxypropyl cellulose (HPC) which is a more hydrophilic polymer and commonly used for topical and oral pharmaceutical preparations (Alvarez-Lorenzo et al., 1999, Int. J. Pharmaceutics, Vol. 180(1), p 91-103).

[2] = system: S. aureus LMG3314; experiment: AAMP assay (MIC), single components and formulation mixture; details: for MIC: Staphylococcus aureus, LMG3314, 24 h, read-out: MIC, single component
Procedure, shortened: (§1)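 MIC determined by the AAMP broth method. Synergy tested by combining 100 μg PenG, 50 μg GarKS and 2.5 μg MP1 in one well against the single agents on the same plate; synergy defined by fractional inhibitory concentration (FIC).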

[3] = system: S. aureus LMG3255; experiment: as above; details: for MIC: Staphylococcus aureus, LMG3255, 24 h, read-out: MIC, single component
Procedure, shortened: as §1

[4] = system: S. aureus LMG3322; experiment: as above; details: for MIC: Staphylococcus aureus, LMG3322, 24 h, read-out: MIC, single component
Procedure, shortened: as §1

[5] = system: S. aureus LMG3307; experiment: as above; details: for MIC: Staphylococcus aureus, LMG3307, 24 h, read-out: MIC, single component
Procedure, shortened: as §1

[6] = system: S. aureus LMG3271; experiment: as above; details: for MIC: Staphylococcus aureus, LMG3271, 24 h, read-out: MIC, single component
Procedure, shortened: as §1

[7] = system: S. aureus LMG3242; experiment: as above; details: for MIC: Staphylococcus aureus, LMG3242, 24 h, read-out: MIC, single component
Procedure, shortened: as §1

[8] = system: S. aureus LMG3266; experiment: as above; details: for MIC: Staphylococcus aureus, LMG3266, 24 h, read-out: MIC, single component
Procedure, shortened: as §1

[9] = system: S. aureus LMG3328; experiment: as above; details: for MIC: Staphylococcus aureus, LMG3328, 24 h, read-out: MIC, single component
Procedure, shortened: as §1

[10] = system: S. aureus LMG3263; experiment: as above; details: for MIC: Staphylococcus aureus, LMG3263, 24 h, read-out: MIC, single component
Procedure, shortened: as §1

[11] = system: S. aureus LMG3026; experiment: as above; details: for MIC: Staphylococcus aureus, LMG3026, 24 h, read-out: MIC, single component
Procedure, shortened: as §1

[12] = system: S. aureus LMG3264; experiment: as above; details: for MIC: Staphylococcus aureus, LMG3264, 24 h, read-out: MIC, single component
Procedure, shortened: as §1

[13] = system: S. aureus LMG3258; experiment: as above; details: for MIC: Staphylococcus aureus, LMG3258, 24 h, read-out: MIC, single component
Procedure, shortened: as §1

[14] = system: S. aureus Newman biofilm; experiment: Biofilm-oriented antimicrobial test (BOAT), MIC50 in biofilms; details: for MIC50: individual component
Method: (§2) Synergistic interactions between antimicrobials were determined using the fractional inhibition concentration (FIC). The FIC values were calculated as follows: the sum of the FIC =FICa+FICb+FICc, where the FICa means MIC of A in combination/MIC of A alone, FICb means MIC of B in combination/MIC of B, and FICc means MIC of C in combination/MIC of C alone. Effects were considered as synergistic if FIC was ≤0.5 for two components mixture and ≤0.75 for three components mixture.
(§3) Staphylococcus aureus strains were inoculated in 5 ml of TSB and incubated O/N at 37° C. Ten μl of the O/N cultures were then inoculated in 90 μl of TSB supplemented with 1% glucose and 1% NaCl (TSB-GN) in the appropriate wells of a 96-well microtiter plate (Sarstedt) to a final volume of 100 μl. The plates were then incubated at 37° C. for 24 h. After the incubation, the presence of the biofilm at the bottom of the wells was assessed visually.
(§4) The BOAT assay was performed as described previously (Gronseth et al., 2017, Int. J. Pediatr. Otorhinolaryngol., Vol. 103, p 58-64) with some modifications. The serial dilutions of the antimicrobials were prepared in challenge plates as follows: 175 μl of TSB were transferred in each row of a 96-well microtiter plate, except for the first row, according to the number of microbial strains to treat. In the first row of the plate, the antimicrobials were diluted to their respective working concentrations in a final volume of 350 μl of TSB. From the first row, 175 μl of the antimicrobial dilutions were then transferred to the second row of the plate and further serially diluted to the bottom of the plate. The same procedure was followed to prepare the controls, except that instead of the antimicrobials an equivalent volume of the respective vehicles were used. The biofilms were allowed to form for 24 h and then washed twice with 100 μl of sterile saline buffer and a total of 150 μl of the antimicrobial and control dilutions were transferred from the challenge plate to the corresponding wells of the biofilm plate. The challenged biofilms were then incubated for an additional 24 h at 37° C. After the challenge period, the antimicrobial dilutions were removed and the biofilms were carefully washed three times with 150 μl of sterile saline buffer. A total of 100 μl of TSB supplemented with 0.025% of triphenyl-tetrazolium chloride (TTC, Sigma) were then added to each well of the plate and further incubated at 37° C. for 5h. The results were then assessed by monitoring the development (or not) of red formazan (red colour), denoting the retention of metabolic activity by bacterial cells (Moussa et al., 2013, J. Mycol., Vol. 2013; Perez et al., 2010, Lett. Appl. Microbiol., Vol. 51, p 331-337). The medium was then removed and 200 μl of an ethanol:acetone (70:30) mixture was added to the wells and incubated O/N in order to extract the red formazan. The amount of extracted dye, reflecting the degree of bacterial cell metabolic activity, was then quantified by spectrophotometric readings at 492 nm.

[15] = system: S.a. 3255 biofilm; experiment: as above; details: for MIC50: individual component
Method: as §2, §3, §4

[16] = Staphylococcus aureus, read-out: MIC50
[17] = garvicin KS + micrococcin P1 + penicillin G

Row | Molecule | MIC [1] [µg/mL] | MIC [2] [µg/mL] | MIC [3] [µg/mL] | MIC [4] [µg/mL] | MIC [5] [µg/mL] | MIC [6] [µg/mL] | MIC [7] [µg/mL] | MIC [8] [µg/mL] | MIC [9] [µg/mL] | MIC [10] [µg/mL] | MIC [11] [µg/mL] | MIC [12] [µg/mL] | MIC [13] [µg/mL] | MIC50 [14, 16] [µg/mL] | MIC50 of the component in combination ([14]; garvicin KS + micrococcin P1) [µg/mL] | MIC50 of the component in combination [14, 17] [µg/mL] | MIC50 [15, 16] [µg/mL] | MIC50 of the component in combination ([15]; garvicin KS + micrococcin P1) | MIC50 of the component in combination [15, 17] [mg/mL] | MIC50 of the component in combination ([14]; garvicin KS + penicillin G) [µg/mL] | further results
1 | C/C=C(\NC(=O)c1csc(-c2csc(-c3ccc4c(n3)-c3csc(n3)[C@H]([C@@H](C)O)NC(=O)c3csc(n3)[C@H](C(C)C)NC(=O)c3csc(n3)/C(=C/C)NC(=O)[C@H]([C@@H](C)O)NC(=O)c3csc-4n3)n2)n1)C(=O)NC[C@@H](C)O [MP1, micrococcin P1] | 0.04 | 0.4 | > 1.8 | > 1.8 | 0.9 | > 1.8 | 0.4 | > 1.8 | 0.9 | 1.8 | > 1.8 | > 1.8 | 1.8 | > 100 | 25 | 25 | > 100 | 2.5 × 10^−2. mg/ml | 0.0063 | – | –
2 | CC1(C)S[C@@H]2[C@H](NC(=O)Cc3ccccc3)C(=O)N2[C@H]1C(=O)O [Penicillin G] | 2 | < 0.24 | < 0.24 | < 0.24 | < 0.24 | < 0.24 | 0.24 | 64 | < 0.24 | 125 | > 2500 | 4 | 64 | 10000 | – | 2500 | 10000 | – | 0.63 | 1300 | MIC50 of the component in combination ([15]; garvicin KS + penicillin G): 0.63 mg/mL
3 | B1 | – | – | – | – | – | – | – | – | – | – | – | – | – | – | 1250 | 1250 | – | 3.1 × 10^−1. mg/ml | 0.31 | 630 | final MIC of the component in the mixture in HPC [1]: 2 µg/mL; MIC, single component ([2]; LMG3314): 32 µg/mL; MIC, single component ([3]; LMG3255): 32 µg/mL; MIC, single component ([4]; LMG3322): 16 µg/mL; MIC, single component ([5]; LMG3307): 32 µg/mL; MIC, single component ([6]; LMG3271): 32 µg/mL; MIC, single component ([7]; LMG3242): 32 µg/mL; MIC, single component ([8]; LMG3266): 32 µg/mL; MIC, single component ([9]; LMG3328): 32 µg/mL; MIC, single component ([10]; LMG3263): 16 µg/mL; MIC, single component ([11]; LMG3026): 16 µg/mL; MIC, single component ([12]; LMG3264): 32 µg/mL; MIC, single component ([13]; LMG3258): 32 µg/mL; MIC50 [14]: 1250 µg/mL; MIC50 of the component in combination ([15]; garvicin KS + penicillin G): 0.31 mg/mL; MIC50 [15]: 1250 µg/mL

Source: US20240041976A1, “COMPOSITION AND USE” (priority 2020, published 2024)
